ChEMBL document CHEMBL1201862, “PubChem BioAssay data set” (2004)
Values belong to the molecule of their own block, whether it stands above or below them. Activity calls are given as the source filed them.

Assays:
cells [1] = assay type: functional, cell-based; conditions: HEK-CNG
Galanin receptor type 3 = target: T1, Galanin receptor type 3 (Homo sapiens, UniProt O60755); assay: Fluorescence-based cell-based primary high throughput dose response assay to identify antagonists of the Galanin Receptor 3 (GalR3).; assay type: functional
T1 sequence (O60755 whole entry): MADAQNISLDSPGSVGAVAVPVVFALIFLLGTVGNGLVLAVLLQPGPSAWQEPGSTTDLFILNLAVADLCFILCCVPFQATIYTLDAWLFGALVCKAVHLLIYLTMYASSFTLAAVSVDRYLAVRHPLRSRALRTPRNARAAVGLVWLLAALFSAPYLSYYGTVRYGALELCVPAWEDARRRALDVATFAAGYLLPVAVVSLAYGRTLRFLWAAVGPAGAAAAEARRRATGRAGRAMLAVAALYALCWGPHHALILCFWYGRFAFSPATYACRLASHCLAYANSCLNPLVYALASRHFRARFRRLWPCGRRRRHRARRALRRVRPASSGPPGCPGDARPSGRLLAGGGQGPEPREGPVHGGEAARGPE

[2] = control 3'UTR Renilla luciferase suppression, dose response, counter-screen for Shn3 inhibitor project, cell-based, Clone20-Shn3RL, cherry-picked (AID 624133); assay type: functional
BJ [3] = assay: cytotoxicity toward BJ-TERT-LT-ST fibroblasts, dose response, cell-based, RAS-independent, luminescence (AID 1935); assay type: functional; conditions: Homo sapiens;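 further: BJ fibroblasts immortalized with TERT plus LT and ST oncogenes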
[4] = Shn3 3'UTR reporter inhibitors, dose response, cell-based, Clone20 osteoblasts, firefly luciferase, cherry-picked (AID 624132); assay type: functional;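 further: firefly luciferase luminescence from reporter carrying the Shn3 3'UTR in osteoblasts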
INS1 = assay: beta cell apoptosis inhibitors, cytokine rescue, dose response, luminescence, retest (AID 449756); assay type: functional, cell-based; conditions: Rattus norvegicus;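 further: cell death triggered by IL-1 beta plus TNF-alpha plus IFN-gamma mixture; protective hits raise ATP signal compared with cytokine alone wells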
BJ [5] = assay: cytotoxicity toward BJ-TERT fibroblasts, dose response, cell-based, RAS-independent, luminescence (AID 1933); assay type: functional; conditions: Homo sapiens
[6] = HepG2 cell cytotoxicity, dose response, cytotoxicity control for Shn3 inhibitor project, CellTiter-Glo, cherry-picked (AID 624134); assay type: functional, cell-based
BJ [7] = assay: cells; assay type: functional, cell-based; conditions: Homo sapiens
[8] = cytotoxicity in HEK-293T cells, dose response, cytotoxicity control for TCR NF-kB inhibitor project, luminescence, T-cell screen hits (AID 489026); assay type: functional, cell-based;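 further: cells exposed to compound about 14 hours before the viability readout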
[9] = cytotoxicity toward DRD oncogenic fibroblasts, dose response, cell-based, non-viral oncogenic, luminescence (AID 1934); assay type: functional; conditions: Homo sapiens
[10] = target: T2, DNA repair and recombination protein RAD54-like (Homo sapiens, UniProt Q92698); assay: inhibitors of human RAD54 branch migration, confirmation, biochemical, fluorescence, cherry-picked samples, dose series (AID 651657); assay type: functional
T2 sequence (Q92698 whole entry): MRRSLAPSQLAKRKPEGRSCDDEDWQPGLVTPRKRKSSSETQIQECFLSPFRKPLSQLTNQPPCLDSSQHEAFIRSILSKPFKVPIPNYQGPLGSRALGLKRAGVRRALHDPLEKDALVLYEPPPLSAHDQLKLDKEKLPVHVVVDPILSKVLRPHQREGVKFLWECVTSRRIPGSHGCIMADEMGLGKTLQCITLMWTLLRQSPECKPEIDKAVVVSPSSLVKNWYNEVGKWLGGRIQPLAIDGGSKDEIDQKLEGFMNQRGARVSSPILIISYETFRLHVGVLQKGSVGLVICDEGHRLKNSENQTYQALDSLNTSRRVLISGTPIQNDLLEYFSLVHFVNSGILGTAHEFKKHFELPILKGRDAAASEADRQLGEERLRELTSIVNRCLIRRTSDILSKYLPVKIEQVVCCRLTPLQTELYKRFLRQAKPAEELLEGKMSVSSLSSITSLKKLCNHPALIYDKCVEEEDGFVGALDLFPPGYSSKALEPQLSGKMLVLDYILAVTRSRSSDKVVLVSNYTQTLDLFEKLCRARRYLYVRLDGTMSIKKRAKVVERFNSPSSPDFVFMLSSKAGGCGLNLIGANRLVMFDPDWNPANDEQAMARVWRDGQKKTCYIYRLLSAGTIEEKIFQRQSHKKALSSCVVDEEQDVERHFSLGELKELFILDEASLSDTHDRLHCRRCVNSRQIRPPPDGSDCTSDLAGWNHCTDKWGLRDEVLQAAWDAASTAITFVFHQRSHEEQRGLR

[11] = cytotoxicity toward NIH3T3 fibroblasts, dose response, counter-screen, cell-based, ATP luminescence, mouse fibroblasts (AID 2010); assay type: functional;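 further: cells exposed to compound for about 90 hours before reading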
[12] = target: Photoreceptor-specific nuclear receptor (Homo sapiens, UniProt Q9Y5X4); assay type: functional, cell-based;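 further: CHO-S cells with Gal4-NCOR and VP16-NR2E3 two-hybrid luciferase reporter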
[13] = inhibitors of intracellular T. cruzi replication, confirmation, NIH3T3 host cells, beta-gal luminescence (AID 2044); assay type: functional, cell-based;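 further: intracellular parasites grown in NIH/3T3 mouse fibroblasts as host cells; luminescent beta-galactosidase reporter signal from transgenic T. cruzi replicating inside host cells; inhibitors lower the luminescence signal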
cells [14] = assay: cells
[15] = target: T3, Low molecular weight phosphotyrosine protein phosphatase (Homo sapiens, UniProt P24666); assay type: functional; conditions: read-out: IC50_Mean
T3 sequence (P24666 whole entry): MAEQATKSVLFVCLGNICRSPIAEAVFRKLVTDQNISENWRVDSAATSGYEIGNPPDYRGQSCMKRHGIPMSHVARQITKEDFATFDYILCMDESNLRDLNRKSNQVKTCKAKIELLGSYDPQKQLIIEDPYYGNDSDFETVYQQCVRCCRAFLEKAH

[16] = target: T3, Low molecular weight phosphotyrosine protein phosphatase; assay type: functional; conditions: read-out: IC50_Mean; remark: listed apart in the source
[17] = HEp-2 cell cytotoxicity, dose response, cytotoxicity control for RSV inhibitor project, HTS (AID 2410); assay type: functional; conditions: human respiratory syncytial virus
Aminopeptidase N = target: T4, Aminopeptidase N (Plasmodium falciparum FcB1/Columbia, UniProt O96935); assay: P. falciparum M1AAP inhibitors, biochemical, fluorogenic H-Leu-NHMec substrate, 1536-well (AID 1445); parameters: species or system Plasmodium falciparum 3D7, 3D7
T4 sequence (O96935 whole entry): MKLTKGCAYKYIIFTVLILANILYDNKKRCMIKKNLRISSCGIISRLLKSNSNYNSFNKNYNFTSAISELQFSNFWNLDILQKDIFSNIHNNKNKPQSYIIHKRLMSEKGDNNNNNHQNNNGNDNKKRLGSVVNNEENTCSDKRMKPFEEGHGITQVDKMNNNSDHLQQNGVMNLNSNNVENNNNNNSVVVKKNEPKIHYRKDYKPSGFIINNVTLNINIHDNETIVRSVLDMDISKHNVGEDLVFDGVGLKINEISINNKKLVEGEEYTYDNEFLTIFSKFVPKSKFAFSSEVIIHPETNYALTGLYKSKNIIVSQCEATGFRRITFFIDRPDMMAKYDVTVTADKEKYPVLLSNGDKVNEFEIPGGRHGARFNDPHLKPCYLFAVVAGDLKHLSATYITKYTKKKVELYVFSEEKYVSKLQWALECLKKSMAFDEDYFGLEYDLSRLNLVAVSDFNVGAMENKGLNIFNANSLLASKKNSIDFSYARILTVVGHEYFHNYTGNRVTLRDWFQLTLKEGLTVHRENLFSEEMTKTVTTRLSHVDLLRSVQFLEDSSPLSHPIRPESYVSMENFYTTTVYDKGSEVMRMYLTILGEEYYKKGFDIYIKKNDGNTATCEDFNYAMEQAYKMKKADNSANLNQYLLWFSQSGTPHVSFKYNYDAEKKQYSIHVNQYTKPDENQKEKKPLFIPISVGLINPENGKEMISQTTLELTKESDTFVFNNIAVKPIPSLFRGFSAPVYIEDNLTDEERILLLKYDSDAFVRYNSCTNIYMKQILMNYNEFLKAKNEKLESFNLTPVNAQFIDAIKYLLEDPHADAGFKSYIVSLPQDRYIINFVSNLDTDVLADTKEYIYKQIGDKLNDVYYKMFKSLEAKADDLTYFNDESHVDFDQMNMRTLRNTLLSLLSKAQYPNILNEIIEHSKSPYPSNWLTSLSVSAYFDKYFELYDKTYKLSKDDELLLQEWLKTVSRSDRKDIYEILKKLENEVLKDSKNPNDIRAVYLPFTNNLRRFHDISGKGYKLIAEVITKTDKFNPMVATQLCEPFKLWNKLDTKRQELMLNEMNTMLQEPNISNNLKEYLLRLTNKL

[18] = target: T5, Corticotropin-releasing factor receptor 2/Corticotropin-releasing factor-binding protein (Homo sapiens, UniProt P24387+Q13324); assay: Dose Response confirmation of uHTS hits for small molecule antagonists of the CRF-binding protein and CRF-R2 receptor complex.; assay type: functional; conditions: read-out: IC50_Mean
T5 sequence (Q13324 whole entry): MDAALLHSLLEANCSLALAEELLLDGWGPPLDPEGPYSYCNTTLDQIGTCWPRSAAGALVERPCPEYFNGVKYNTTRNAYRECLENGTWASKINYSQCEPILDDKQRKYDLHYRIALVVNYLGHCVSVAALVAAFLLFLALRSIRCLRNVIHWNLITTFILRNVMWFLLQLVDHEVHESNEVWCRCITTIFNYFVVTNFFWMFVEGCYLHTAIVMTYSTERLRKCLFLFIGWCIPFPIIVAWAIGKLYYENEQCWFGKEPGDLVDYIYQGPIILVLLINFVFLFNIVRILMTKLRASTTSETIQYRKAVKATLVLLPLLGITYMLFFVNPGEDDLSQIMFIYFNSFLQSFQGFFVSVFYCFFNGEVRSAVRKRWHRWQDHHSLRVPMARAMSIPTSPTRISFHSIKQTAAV
T5 sequence (P24387 whole entry): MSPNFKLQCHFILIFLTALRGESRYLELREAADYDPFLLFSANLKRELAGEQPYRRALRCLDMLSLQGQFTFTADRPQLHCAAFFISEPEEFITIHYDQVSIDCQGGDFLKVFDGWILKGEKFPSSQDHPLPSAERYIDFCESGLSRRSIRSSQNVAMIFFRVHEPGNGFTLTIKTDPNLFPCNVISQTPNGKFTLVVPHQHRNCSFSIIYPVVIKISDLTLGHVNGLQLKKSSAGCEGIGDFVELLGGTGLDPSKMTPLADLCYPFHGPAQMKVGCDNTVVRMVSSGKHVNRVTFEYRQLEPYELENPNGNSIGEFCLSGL

[19] = target: T6, High affinity choline transporter 1 (Homo sapiens, UniProt Q9GZV3); assay: CHT inhibitors, dose response, cell-based, 5-point CRC, membrane potential dye (AID 504840); assay type: functional
T6 sequence (Q9GZV3 whole entry): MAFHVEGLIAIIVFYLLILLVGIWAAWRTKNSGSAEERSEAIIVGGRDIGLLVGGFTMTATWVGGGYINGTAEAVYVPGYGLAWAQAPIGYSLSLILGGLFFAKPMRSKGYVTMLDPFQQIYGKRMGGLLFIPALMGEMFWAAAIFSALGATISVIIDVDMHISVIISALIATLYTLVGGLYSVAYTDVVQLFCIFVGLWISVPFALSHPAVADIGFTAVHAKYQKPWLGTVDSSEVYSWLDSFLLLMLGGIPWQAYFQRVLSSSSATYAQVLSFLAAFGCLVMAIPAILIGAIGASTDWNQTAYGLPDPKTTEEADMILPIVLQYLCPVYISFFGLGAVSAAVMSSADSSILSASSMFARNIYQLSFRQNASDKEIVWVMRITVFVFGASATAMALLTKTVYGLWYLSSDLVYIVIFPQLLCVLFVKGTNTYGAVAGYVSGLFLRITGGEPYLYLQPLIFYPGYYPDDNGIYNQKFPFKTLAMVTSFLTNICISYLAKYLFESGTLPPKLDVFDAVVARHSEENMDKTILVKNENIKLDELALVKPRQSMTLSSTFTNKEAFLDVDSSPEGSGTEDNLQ

[20] = CRF-BP/CRF-R2 complex antagonists, dose response, cell-based, uHTS hits, 384-well (AID 651639); assay type: functional, Homo sapiens; conditions: read-out: IC50_Mean
[21] = target: T5, Corticotropin-releasing factor receptor 2/Corticotropin-releasing factor-binding protein; assay: activators of CRF receptor 2 with binding protein – uHTS hits, confirmation (AID 602473); assay type: functional; conditions: read-out: EC50_Mean

Sequence of Photoreceptor-specific nuclear receptor (Q9Y5X4 whole entry, the tested form may be a part): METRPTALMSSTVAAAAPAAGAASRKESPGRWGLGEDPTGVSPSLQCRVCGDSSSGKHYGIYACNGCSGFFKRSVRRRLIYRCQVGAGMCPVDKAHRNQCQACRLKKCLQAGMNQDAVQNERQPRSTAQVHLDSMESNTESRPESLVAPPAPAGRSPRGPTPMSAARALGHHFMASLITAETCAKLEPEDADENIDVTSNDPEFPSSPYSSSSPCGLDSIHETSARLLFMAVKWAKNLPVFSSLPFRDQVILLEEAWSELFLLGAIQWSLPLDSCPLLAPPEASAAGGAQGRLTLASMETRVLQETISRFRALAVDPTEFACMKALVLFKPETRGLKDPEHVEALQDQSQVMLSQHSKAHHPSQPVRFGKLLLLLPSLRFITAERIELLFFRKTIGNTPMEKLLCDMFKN

SMILES: O=S(=O)(c1ccc2c(c1)OCCO2)N1CCN(c2ncnc3sccc23)CC1
EC50 (cells [1]): > 29.9 µM (inactive) | IC50 (Galanin receptor type 3): 2.06 µM (active) | AC50 [2]: 29.6 µM (active) | EC50 (BJ [3]): > 150 µM (not active) | AC50 [4]: 1.45 µM (active) | AC50 (INS1): 3.37 µM (active) | EC50 (BJ [5]): > 150 µM (not active) | AC50 [6]: 3.21 µM (active) | EC50 (BJ [7]): > 150 µM (not active) | IC50 [8]: > 80 µM (inactive) | EC50 [9]: > 150 µM (not active)

AC50 [10]: 95 µM (active)
SMILES: CCN1CCN(C(S)=Nc2ccc3nc(N4CCN(CC)CC4)cc(C)c3c2)CC1

SMILES: Cc1nn(Cc2cccc(F)c2)c(C)c1NC(=O)c1ccc(COc2ccccc2Cl)cc1
EC50 [11]: 40.4 µM (active) | IC50 [12]: 2.85 µM (active) | EC50 [13]: 1.26 µM (active)

SMILES: O=C(O)c1cccc(NC(=O)c2cn(-c3ccccc3)nc2-c2cc3ccccc3o2)c1
IC50 (cells [14]): 20.9 µM (active) | IC50 [15]: 18 µM (active) | IC50 [16]: 43 µM (inactive) | CC50 [17]: 33 µM (active)

IC50 (Aminopeptidase N): 69.4 µM (active) | IC50 [18]: 5.71 µM (active) | IC50 [19]: 12.6 µM (active) | IC50 [20]: > 20 µM (inactive) | EC50 [21]: 7.48 µM (active)
SMILES: O=C(Nc1cc(S(=O)(=O)N2CCCCC2)ccc1O)c1ccccc1NS(=O)(=O)c1ccc(F)c(F)c1
